In PubChem BioAssay (NCI):
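GI50: concentration for 50% inhibition of growth. TGI: total growth inhibition.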

Tests used:
Experiment in all cases: growth of human tumour cells (NCI), 384-well format
NCI-H460 NSCLC = tested on: NCI-H460 NSCLC
A498 renal = tested on: A498 renal
EKVX NSCLC = tested on: EKVX NSCLC
HS 578T breast = tested on: HS 578T breast
MOLT-4 leukemia = tested on: MOLT-4 leukemia
HCC-2998 colon = tested on: HCC-2998 colon
RPMI-8226 leukemia = tested on: RPMI-8226 leukemia
OVCAR-5 ovarian = tested on: OVCAR-5 ovarian
HOP-62 NSCLC = tested on: HOP-62 NSCLC
CCRF-CEM leukemia = tested on: CCRF-CEM leukemia
NCI-H522 lung = tested on: NCI-H522 lung
SK-OV-3 ovarian = tested on: SK-OV-3 ovarian
UACC-257 melanoma = tested on: UACC-257 melanoma
SNB-75 CNS = tested on: SNB-75 CNS
K-562 leukemia = tested on: K-562 leukemia
BT-549 breast = tested on: BT-549 breast
NCI-H23 lung = tested on: NCI-H23 lung
MDA-MB-231 breast = tested on: MDA-MB-231 breast
PC-3 prostate = tested on: PC-3 prostate
HCT-116 colon = tested on: HCT-116 colon
DU-145 prostate = tested on: DU-145 prostate
786-0 renal = tested on: 786-0 renal
COLO 205 colon = tested on: COLO 205 colon
SK-MEL-28 melanoma = tested on: SK-MEL-28 melanoma
LOX IMVI melanoma = tested on: LOX IMVI melanoma
SF-295 CNS = tested on: SF-295 CNS
NCI-H322M lung = tested on: NCI-H322M lung
ACHN renal = tested on: ACHN renal
HT29 colon = tested on: HT29 colon
HL-60(TB) leukemia = tested on: HL-60(TB) leukemia
CAKI-1 renal = tested on: CAKI-1 renal
SW-620 colon = tested on: SW-620 colon
MDA-MB-468 breast = tested on: MDA-MB-468 breast
OVCAR-4 ovarian = tested on: OVCAR-4 ovarian
MALME-3M melanoma = tested on: MALME-3M melanoma
MCF7 breast = tested on: MCF7 breast
NCI-H226 lung = tested on: NCI-H226 lung
TK-10 renal = tested on: TK-10 renal
NCI/ADR-RES ovarian = tested on: NCI/ADR-RES ovarian
SK-MEL-5 melanoma = tested on: SK-MEL-5 melanoma
IGROV1 ovarian = tested on: IGROV1 ovarian
T-47D breast = tested on: T-47D breast
UO-31 renal = tested on: UO-31 renal
HOP-92 NSCLC = tested on: HOP-92 NSCLC
SN12C renal = tested on: SN12C renal
A549 NSCLC = tested on: A549 NSCLC
SR leukemia = tested on: SR leukemia
U251 glioblastoma = tested on: U251 glioblastoma
OVCAR-3 ovarian = tested on: OVCAR-3 ovarian
OVCAR-8 ovarian = tested on: OVCAR-8 ovarian
HCT-15 colon = tested on: HCT-15 colon
KM12 colon = tested on: KM12 colon
SNB-19 CNS = tested on: SNB-19 CNS
RXF 393 renal = tested on: RXF 393 renal
SF-539 CNS = tested on: SF-539 CNS
SF-268 CNS = tested on: SF-268 CNS
M14 melanoma = tested on: M14 melanoma

SMILES: Cc1ccccc1CN1CC2=C(CCN(Cc3ccccc3)C2=O)N2CCN=C12
- GI50 (NCI-H460 NSCLC): 2.61 µM
- TGI (NCI-H460 NSCLC): 9.29 µM
- GI50 (A498 renal): 4.56 µM
- TGI (A498 renal): > 100 µM
- GI50 (EKVX NSCLC): 3.3 µM
- TGI (EKVX NSCLC): > 100 µM
- GI50 (HS 578T breast): 2.23 µM
- TGI (HS 578T breast): 20.2 µM
- GI50 (MOLT-4 leukemia): 1.7 µM
- TGI (MOLT-4 leukemia): 3.39 µM
- GI50 (HCC-2998 colon): 2.66 µM
- TGI (HCC-2998 colon): 22.8 µM
- GI50 (RPMI-8226 leukemia): 0.203 µM
- TGI (RPMI-8226 leukemia): 0.382 µM
- GI50 (OVCAR-5 ovarian): 3.5 µM
- TGI (OVCAR-5 ovarian): > 100 µM
- GI50 (HOP-62 NSCLC): 1.36 µM
- TGI (HOP-62 NSCLC): 7.9 µM
- GI50 (CCRF-CEM leukemia): 1.04 µM
- TGI (CCRF-CEM leukemia): > 100 µM
- GI50 (NCI-H522 lung): 2.38 µM
- TGI (NCI-H522 lung): 70.9 µM
- GI50 (SK-OV-3 ovarian): 3.44 µM
- TGI (SK-OV-3 ovarian): 36.9 µM
- GI50 (UACC-257 melanoma): 1.13 µM
- TGI (UACC-257 melanoma): 3.11 µM
- GI50 (SNB-75 CNS): 2.9 µM
- TGI (SNB-75 CNS): 24.9 µM
- GI50 (K-562 leukemia): 0.631 µM
- TGI (K-562 leukemia): > 100 µM
- GI50 (BT-549 breast): 4.06 µM
- TGI (BT-549 breast): 66.4 µM
- GI50 (NCI-H23 lung): 2.14 µM
- TGI (NCI-H23 lung): 7.97 µM
- GI50 (MDA-MB-231 breast): 2.83 µM
- TGI (MDA-MB-231 breast): 9.62 µM
- GI50 (PC-3 prostate): 2.81 µM
- TGI (PC-3 prostate): > 100 µM
- GI50 (HCT-116 colon): 1.9 µM
- TGI (HCT-116 colon): > 100 µM
- GI50 (DU-145 prostate): 3.11 µM
- TGI (DU-145 prostate): > 100 µM
- GI50 ([…]-0 renal): 4.14 µM
- TGI (786-0 renal): > 100 µM
- GI50 (COLO 205 colon): 2.88 µM
- TGI (COLO 205 colon): 14.1 µM
- GI50 (SK-MEL-28 melanoma): 4.55 µM
- TGI (SK-MEL-28 melanoma): > 100 µM
- GI50 (LOX IMVI melanoma): 2.09 µM
- TGI (LOX IMVI melanoma): 88.4 µM
- GI50 (SF-295 CNS): 0.7 µM
- TGI (SF-295 CNS): 3.17 µM
- GI50 (NCI-H322M lung): 3.34 µM
- TGI (NCI-H322M lung): > 100 µM
- GI50 (ACHN renal): 6.02 µM
- TGI (ACHN renal): > 100 µM
- GI50 (HT29 colon): 12 µM
- TGI (HT29 colon): > 100 µM
- GI50 (HL-60(TB) leukemia): 0.186 µM
- TGI (HL-60(TB) leukemia): 0.547 µM
- GI50 (CAKI-1 renal): 3.97 µM
- TGI (CAKI-1 renal): > 100 µM
- GI50 (SW-620 colon): 5.69 µM
- TGI (SW-620 colon): > 100 µM
- GI50 (MDA-MB-468 breast): 0.363 µM
- TGI (MDA-MB-468 breast): 1.32 µM
- GI50 (OVCAR-4 ovarian): 1.08 µM
- TGI (OVCAR-4 ovarian): 4.99 µM
- GI50 (MALME-3M melanoma): 3.69 µM
- TGI (MALME-3M melanoma): 10.5 µM
- GI50 (MCF7 breast): 3.12 µM
- TGI (MCF7 breast): > 100 µM
- GI50 (NCI-H226 lung): 3.42 µM
- TGI (NCI-H226 lung): 63.1 µM
- GI50 (TK-10 renal): 6.47 µM
- TGI (TK-10 renal): > 100 µM
- GI50 (NCI/ADR-RES ovarian): 1.39 µM
- TGI (NCI/ADR-RES ovarian): 7.8 µM
- GI50 (SK-MEL-5 melanoma): 1.19 µM
- TGI (SK-MEL-5 melanoma): 2.9 µM
- GI50 (IGROV1 ovarian): 53.8 µM
- TGI (IGROV1 ovarian): > 100 µM
- GI50 (T-47D breast): 2 µM
- TGI (T-47D breast): 9.66 µM
- GI50 (UO-31 renal): 5.97 µM
- TGI (UO-31 renal): > 100 µM
- GI50 (HOP-92 NSCLC): 4.3 µM
- TGI (HOP-92 NSCLC): > 100 µM
- GI50 (SN12C renal): 3.45 µM
- TGI (SN12C renal): > 100 µM
- GI50 (A549 NSCLC): 4.2 µM
- TGI (A549 NSCLC): > 100 µM
- GI50 (SR leukemia): 1 µM
- TGI (SR leukemia): 2.45 µM
- GI50 (U251 glioblastoma): 1.8 µM
- TGI (U251 glioblastoma): 6.21 µM
- GI50 (OVCAR-3 ovarian): 2.06 µM
- TGI (OVCAR-3 ovarian): 5.71 µM
- GI50 (OVCAR-8 ovarian): 0.796 µM
- TGI (OVCAR-8 ovarian): > 100 µM
- GI50 (HCT-15 colon): 1.78 µM
- TGI (HCT-15 colon): > 100 µM
- GI50 (KM12 colon): 6.87 µM
- TGI (KM12 colon): > 100 µM
- GI50 (SNB-19 CNS): 2.98 µM
- TGI (SNB-19 CNS): > 100 µM
- GI50 (RXF 393 renal): 4.17 µM
- TGI (RXF 393 renal): 28 µM
- GI50 (SF-539 CNS): 3.54 µM
- TGI (SF-539 CNS): 23.3 µM
- GI50 (SF-268 CNS): 3.99 µM
- TGI (SF-268 CNS): > 100 µM
- GI50 (M14 melanoma): 3.28 µM
- TGI (M14 melanoma): > 100 µM
